Data reported in patent US9023853B2, “Janus kinase 2 (JAK2) inhibitor for the treatment of lupus” (Cephalon, Inc., priority 2010, dated 2015).
Values joined by “and” are separate entries in the source; they are usually repeats but may differ in a detail not shown here. Equal entries are not always repeated.

What was measured:
Assay type in all cases: in vivo, mouse
anti-dsDNA antibodies = test: Serum anti-dsDNA ANA ELISA in NZM mice; settings: for A: Anti-dsDNA IgG, MEAN: NZM group mean; for A: Anti-dsDNA IgG: NZM individual mouse; for serum anti-dsDNA ANAs decrease compared to vehicle: NZM mice
Source text: The measurement of anti-dsDNA and anti-Smith antigen antibodies was done by an in-house generated custom ELISA assay. Chromatin coated plates were purchased from Inova Diagnostics, Inc. Purified bovine thymus dsDNA (Sigma, St. Louis, […].) or purified bovine Smith antigen (GenWay, San Diego, Calif.) were used as coating antigen for the detection of anti-dsDNA and anti-Smith Ag antibodies respectively. Coated plates were washed with Borate Sulfate Saline (BSS) and blocked with BSS containing 1% Bovine Serum Albumin (BSA) and 0.1% Tween-20 detergent. Standard curves were generated using mouse anti-chromatin antibody (Sigma, 2B1) or 25 week old MRL/lpr serum. Mouse anti-dsDNA antibody (Abcam, Cambridge, Mass.), or mouse anti-Smith antigen antibody (Abcam) were used as standards for each assay. Secondary antibody was purchased from Abcam (goat anti-mouse pAb-HRP), the substrate was purchased from Rockland (Gilbertsville, Pa.) (TMB), and stop reaction buffer was generated using 1 mL of concentrated sulfuric acid into 20 mL of dH2O. Developed plates were read using a Victor-X4 spectrophotometer reading at […] with a reference wavelength of 570 nm. For all ANA ELISA assays, values below the limit of detection set by the lowest point along the standard or set by the manufacturer were considered out of range and were not estimated, but assumed the lowest point along the standard curve for that particular assay.
(§1) Age mated, female, NZM or NZW/LacJ, mice were matured for the study of lupus nephritis for a total of 7 months or 210 days at which time urine was collected for proteinuria detection. Mice with 0.5-1.0 mg/ml of urine protein as determined by an optical density-based total protein precipitation assay and cross-checked for 30-300 mg/dl of protein as determined by a stick assay were considered proteinuria positive and selected for study entry. Groups were normalized to contain a Gaussian distribution of proteinuria positive animals (i.e., ⅓ low proteinuria, ⅓ medium, ⅓ high) then randomized between groups before ear marking and taking baseline measures including urine and serum collections. A total of five mice from the total population were randomly selected for baseline kidney histology evaluation. Treatments and tests for each group are as described in FIG. 12. Briefly, with a minimum of 10 mice per group, COMPOUND A was administered at 100 mg/kg or 55 mg/kg, both twice a day and orally. […] Vehicle included 3% DMSO, 10% Solutol and 87% PBS. […] End-stage lupus nephritis was evaluated by histopathology and scored by a board certified pathologist for the assessment of total renal damage in diseased animals using the scoring method described by Smith et al (Smith, Dong et al. 2007). […] Day-98 or “end of treatment/study” represents 310 days of age for the NZM animals.

NZM mice [1] = test: Urinalysis total urine protein (proteinuria) in NZM mice; settings: for I: Proteinuria, MEAN: NZM group mean; for I: Proteinuria: NZM individual mouse
Protocol: Urine samples were acid precipitated for total protein recovery and analysis. Samples for which enough urine remained were used for Uristix® leukouria analysis (MRL/lpr study only). Briefly, a standard protein solution was prepared from normal mouse sera and was used as a standard for mouse urinary protein assay by turbidity. Standard preparation was as follows: 0, 5, 10, 15, 20, 30, 40, and 50 μL of a 4 mg/mL mouse sera standard protein solution as provided in the kit were added in duplicate into two columns. PBS was added to individual wells to adjust the final volume to 50 μL. For urine sample preparation, urine samples were centrifuged at 9880×g for 3 minutes using a tabletop micro-centrifuge. Urine supernatant (1-50 μL) was added in duplicate. PBS was added to adjust the volume to 50 μL total. For the turbidity assay: 25 μL of 0.1 N HCl was added into blank columns and 250 μL of 3% sulfosalicyclic acid into the test columns. The microplate was incubated for 10 minutes at RT and plates were read using an ELISA reader with single beam at 450 nm. For the Uristix® strip assay, strips were laid out and labeled. Twenty microliters of urine were placed onto each test strip square and incubated for at least 30 seconds before the result was recorded. For all total urine analysis plate-based assays, values below the limit of detection set by the lowest point along the standard or set by the manufacturer were considered out of range and were not estimated, but assumed the lowest point along the standard curve for that particular assay.
as §1

NZM mice [2] = test: Survival in NZM lupus model; settings: for Age (d), MEAN: NZM group mean; for Age: NZM individual mouse (survival; EOS = 310 days of age); for survival at EOS: NZM mice
Protocol: Six week old lupus-prone, female, MRL/lpr (Jackson Labs, #000485) and non-lupus prone control MRL/MpJ (Jackson Labs, #000486) mice were obtained from Jackson Laboratories (Bar Harbor, Me.) at 6-weeks of age. Spontaneous SLE-prone NZBWF1/J (NZM) (catalog no. 100008) female mice and non-lupus prone (within time from of experiment) NZW/LacJ (catalog no. 001058) female mice were obtained from Jackson Laboratories (Bar Harbor, Me.) at 15-weeks of age. All mice were maintained on a […] light/dark cycle, with food and water available ad libitum. All experimental animal procedures were approved by and in accordance to the regulations of the Institutional Animal Care and Use Committee (IACUC) of Cephalon, Inc; approved IACUC protocol #03-040 and #03-03-041.
The NZM strain acts as a mouse model of genetically-driven, progressive, systemic lupus erythematosus (SLE). The evolution of the disease in NZM mice is characterized by an abnormal polyclonal B cell activation with a high production of various autoantibodies, including those directed against DNA and other nuclear antigens, and against cytoskeleton proteins. Elevated circulating immune complexes can lead to fatal glomerulonephritis in older mice.
as §1

C[C@@H]1C[C@H]2[C@@H]3CCC4=CC(=O)C=C[C@]4(C)[C@@]3(F)[C@@H](O)C[C@]2(C)[C@@]1(O)C(=O)CO [Dex, dexamethasone, reference compound]
A: Anti-dsDNA IgG, MEAN (anti-dsDNA antibodies; Dex 1.5 mpk 3 × wk): 42.7 | A: Anti-dsDNA IgG (anti-dsDNA antibodies; Dex 1.5 mpk 3 × wk): 27.2 and 18.9 and 20.0 and 79.5 and 167.5 and 27.8 and 16.2 and 10.9 and 17.1 | I: Proteinuria, MEAN (NZM mice [1]; Dex 1.5 mpk 3 × wk): 7.86 mg/mL | I: Proteinuria (NZM mice [1]; Dex 1.5 mpk 3 × wk): 8.43 mg/mL and 10.19 mg/mL (2×) and 11.02 mg/mL and 8.47 mg/mL and 0.35 mg/mL and 7.16 mg/mL and 0.55 mg/mL and 12.36 mg/mL and 9.89 mg/mL | Age (d), MEAN (NZM mice [2]; Dex 1.5 mpk 3 × wk): 261.4 days | Age (NZM mice [2]; Dex 1.5 mpk 3 × wk): 291 d (2×) and 240 d (3×) and 268 d and 310 d (2×)

CN1CCN(c2cccc(Nc3nc4c(-c5ccc(S(C)(=O)=O)cc5)cccn4n3)c2)CC1 [COMPOUND A, [8-(4-methanesulfonyl-phenyl)-[1,2,4]triazolo[1,5-a]pyridin-2-yl]-[3-(4-methyl-piperazin-1-yl)-phenyl]-amine]
A: Anti-dsDNA IgG, MEAN (anti-dsDNA antibodies; CMPD A 55 mpk bid): 16.4 | A: Anti-dsDNA IgG, MEAN (anti-dsDNA antibodies; CMPD A 100 mpk bid): 14.4 | A: Anti-dsDNA IgG (anti-dsDNA antibodies; CMPD A 55 mpk bid, 55 mg/kg): 20.6 and 39.4 and 9.4 and 12.6 and 12.7 and 7.5 and 15.2 and 16.7 and 19.3 and 10.8 | A: Anti-dsDNA IgG (anti-dsDNA antibodies; CMPD A 100 mpk bid, 100 mg/kg): 13.4 and 18.2 and 9.6 and 13.8 and 11.5 and 6.6 and 20.5 and 5.1 and 26.5 and 19.2 | serum anti-dsDNA ANAs decrease compared to vehicle (anti-dsDNA antibodies; COMPOUND A 55 mg/kg, over course of disease): 67.0% | serum anti-dsDNA ANAs decrease compared to vehicle (anti-dsDNA antibodies; COMPOUND A 100 mg/kg, over course of disease): 73.9% | I: Proteinuria, MEAN (NZM mice [1]; CMPD A 55 mpk bid): 0.56 mg/mL | I: Proteinuria, MEAN (NZM mice [1]; CMPD A 100 mpk bid): 1.32 mg/mL | I: Proteinuria (NZM mice [1]; CMPD A 55 mpk bid, 55 mg/kg): 0.41 mg/mL (2×) and 0.50 mg/mL and 0.74 mg/mL and 0.48 mg/mL (2×) and 0.52 mg/mL and 1.11 mg/mL and 0.37 mg/mL and 0.61 mg/mL | I: Proteinuria (NZM mice [1]; CMPD A 100 mpk bid, “0.00” = BQL, 100 mg/kg): 0.48 mg/mL and 0.55 mg/mL and 0.70 mg/mL and 0.53 mg/mL and 0.44 mg/mL and 0.11 mg/mL and 0.00 mg/mL (3×) and 10.39 mg/mL | total urine protein decrease compared to vehicle (NZM mice [1]; NZM mice, COMPOUND A 55 mg/kg, over course of disease): 76.25 | total urine protein decrease compared to vehicle (NZM mice [1]; NZM mice, COMPOUND A 100 mg/kg, over course of disease): 81.8% | urine protein levels relative to age-matched, non-lupus control mice (NZM mice [1]; NZM mice, COMPOUND A treatment, FIG. 17): below the protein levels of age-matched, non-lupus control mice | Age (d), MEAN (NZM mice [2]; CMPD A 55 mpk bid): 300.2 days | Age (d), MEAN (NZM mice [2]; CMPD A 100 mpk bid): 291.8 days | Age (NZM mice [2]; CMPD A 55 mpk bid, 55 mg/kg): 310 d (9×) and 212 d | Age (NZM mice [2]; CMPD A 100 mpk bid, 100 mg/kg): 310 d (7×) and 268 d (2×) and 212 d | survival at EOS (NZM mice [2]; COMPOUND A 55 mg/kg orally twice a day): 90% | survival at EOS (NZM mice [2]; COMPOUND A 100 mg/kg orally twice a day): 70%

O=P1(N(CCCl)CCCl)NCCCO1 (stereo not shown) [CTX, cyclophosphamide, reference compound]
A: Anti-dsDNA IgG, MEAN (anti-dsDNA antibodies; CTX 50 mpk 1 × wk): 30.9 | A: Anti-dsDNA IgG (anti-dsDNA antibodies; CTX 50 mpk 1 × wk): 13.4 and 6.9 and 22.2 and 13.2 and 40.3 and 9.6 and 65.1 and 52.4 and 24.3 and 61.9 | serum anti-dsDNA ANAs decrease compared to vehicle (anti-dsDNA antibodies; CTX 50 mg/kg once weekly ip): 65.3% | I: Proteinuria, MEAN (NZM mice [1]; CTX 50 mpk 1 × wk): 2.8 mg/mL | I: Proteinuria (NZM mice [1]; CTX 50 mpk 1 × wk): 11.09 mg/mL and 0.86 mg/mL and 1.44 mg/mL and 0.76 mg/mL and 1.30 mg/mL and 0.71 mg/mL and 8.84 mg/mL and 0.96 mg/mL and 0.58 mg/mL and 1.50 mg/mL | total urine protein decrease compared to vehicle (NZM mice [1]; NZM mice, CTX 50 mg/kg once weekly ip): 67.1% | Age (d), MEAN (NZM mice [2]; CTX 50 mpk 1 × wk): 284.9 days | Age (NZM mice [2]; CTX 50 mpk 1 × wk): 227 d and 310 d (7×) and 212 d and 240 d | survival at EOS (NZM mice [2]; CTX 50 mg/kg once weekly ip): 70%
